Data: publication PMC8913810, “New insights into the resistance mechanism for the BceAB-type transporter SaNsrFP” (Scientific Reports, 2022)
Like-named read-outs stand apart in the source and are kept apart here. Bridge positions count the residues as written; N and C are the ends. Square brackets hold non-standard residues; d marks the D form. Peptide text beside a SMILES is read from it. * marks the point of attachment. Ileψ(thiazoline)Cys = CC[C@H](C)[C@H](N)C1=N[C@H](C(=O)*)CS1; dOrn = NCCC[C@@H](N)C(=O)O

Experiments:
[1] = tested on: L. lactis NZ9000Cm; settings: read-out: IC50 (nM) L. lactis NZ9000Cm; GM17, 5 µg/ml chloramphenicol, 0.3 nM nisin, 30 °C, 5 h, optical density; at least 3 biological replicates with 3 technical replicates each
Method: (§1) After adding the different antibiotics to the cultures of the strains L. lactis wild type (WT), L. lactis NZ9000Cm, L. lactis NZ9000SaNsrFP and L. lactis SaNsrFH202AP, the IC50 was determined.
(§2) The half maximal inhibitory concentration was determined according to Abts et al.[71]. Briefly, L. lactis NZ9000Cm, L. lactis NZ9000SaNsrFP and L. lactis NZ9000SaNsrFH202AP cells were grown in GM17 medium containing 5 µg/ml chloramphenicol and 0.3 nM nisin at 30 °C overnight. Fresh GM17Cm medium with a sublethal amount of nisin (0.3 nM) was inoculated with overnight cultures to an OD600 of 0.1. A 96-well plate was prepared with a serial dilution of examined antibiotics (concentration ranges ramoplanin 0.014 nM–3.75 µM; lysobactin 0.002 nM–10 µM; vancomycin 0.02 nM–80 µM; nisin 0.0001 nM–0.5 µM) and subsequently the cell culture was added and plates were incubated at 30 °C for 5 h. Afterwards, the optical density was measured, and the IC50 values for each strain and antibiotic were calculated.

[2] = tested on: L. lactis NZ9000NsrFH202AP; settings: for Fold of resistance L. lactis NZ9000NsrFH202AP: IC50 of NZ9000NsrFH202AP divided by IC50 of NZ9000Cm; for IC50: read-out: IC50 (nM) L. lactis NZ9000NsrFH202AP, GM17, 5 µg/ml chloramphenicol, 0.3 nM nisin, 30 °C, 5 h, optical density, at least 3 biological replicates with 3 technical replicates each
Method: as §1, §2

[3] = tested on: L. lactis NZ9000NsrFP; settings: for Fold of resistance L. lactis NZ9000NsrFP: IC50 of NZ9000NsrFP divided by IC50 of NZ9000Cm; for IC50: read-out: IC50 (nM) L. lactis NZ9000NsrFP, GM17, 5 µg/ml chloramphenicol, 0.3 nM nisin, 30 °C, 5 h, optical density, at least 3 biological replicates with 3 technical replicates each
Method: as §1, §2

[4] = tested on: L. lactis NZ9000NisT; settings: for Fold of resistance L. lactis NZ9000NisT: IC50 of NZ9000NisT relative to NZ9000Cm; for IC50: read-out: IC50 (nM) L. lactis NZ9000NisT, GM17, 5 µg/ml chloramphenicol, 0.3 nM nisin, 30 °C, 5 h, optical density
[5] = tested on: L. lactis NZ9000NsrFP; settings: fold changes described earlier for SaNsrFP; ref 34 (Reiners et al.); cited from earlier work
From the text: No significant differences were detected between NZ9000NsrFP and NZ9000NsrFH202AP with ramoplanin. […] IC50 values decreased to similar levels in L. lactis NZ9000SaNsrFH202AP (one, two ...

[6] = tested on: SaNSRS236A; design: method as in earlier work; settings: low-level resistance; ref 32 (Khosa et al.); cited from earlier work
[7] = tested on: L. lactis NZ9000Cm; test: Growth curve, empty-plasmid strain; type: cell-based, Lactococcus lactis; settings: 1 µM bacitracin + 1 mM ZnCl2 or 4 µM bacitracin without zinc; 0.3 nM nisin; monitored over 500 min, 30 °C
From the text: (§3) To investigate whether SaNsrFP confers resistance against bacitracin and Zn-bacitracin, binding to the lipid carrier UPP[20],[52], we analyzed the influence of the expression of the sansrfp gene. The sensitive L. lactis strain NZ9000, served as an indicator strain for these studies which was transformed with a plasmid encoding the nsrfp gene. We included two controls where the strains were transformed with (I) an empty plasmid (L. lactis NZ9000Cm) (II) a plasmid containing a variant of the nsrfp gene (L. lactis NZ9000SaNsrFH202AP)[34]. This NZ9000SaNsrFH202AP strain is used since the transporter carries a mutation in the H-loop, a highly conserved region of ABC transporters, and as a result is not able to hydrolyze ATP[47]. […] The growth of L. lactis NZ9000Cm, L. lactis NZ9000SaNsrFP, L. lactis NZ9000SaNsrFH202AP and L. lactis NZ9000NisT was monitored online over a time period of 500 min (Fig. 2a,b). After adding the different antibiotics to the culture, the growth curve was determined. […]
(§4) To detect the growth behavior of the different strains, precultures of L. lactis NZ9000Cm, L. lactis NZ9000SaNsrFP and L. lactis NZ9000SaNsrFH202AP cells were grown in GM17 medium with 5 or 10 µg/ml chloramphenicol and 0.3 nM nisin at 30 °C overnight. […] Growth was detected at OD584 every 10 min with a FLUOstar OPTIMA (BMG Lab technology).

[8] = tested on: L. lactis NZ9000SaNsrFP; test: Growth curve, SaNsrFP-producing strain; type: cell-based, Lactococcus lactis; settings: 1 µM bacitracin + 1 mM ZnCl2 or 4 µM bacitracin without zinc; 0.3 nM nisin; compared with untreated control strain
From the text: as §3, §4

[9] = tested on: L. lactis NZ9000SaNsrFH202AP; test: Growth curve, ATP-hydrolysis deficient mutant strain; type: cell-based, Lactococcus lactis; settings: 4 µM bacitracin without ZnCl2; 0.3 nM nisin; monitored over 500 min
From the text: as §3, §4

[10] = tested on: L. lactis NZ9000NisT; test: Growth curve, NisT-producing strain; type: cell-based, Lactococcus lactis; settings: 1 µM bacitracin + 1 mM ZnCl2 or 4 µM bacitracin without zinc; 0.3 nM nisin; monitored over 500 min, 30 °C
From the text: as §3, §4

[11] = tested on: L. lactis NZ9000Cm; test: Cytoplasmic PGN precursor accumulation (HPLC/MS), empty-plasmid strain; type: cell-based, Lactococcus lactis; settings: bacitracin 100 µg/ml added at OD600 1.2, 30 min at 30 °C, repeated once; HPLC/MS EIC 1148.4 and 1263.4
Method: (§5) Cells were grown in M17 medium supplemented with 0.5% glucose and 0.3 nM nisin overnight at 30 °C without shaking. The next day, 100 ml with 0.5% glucose and 0.3 nM nisin was inoculated with overnight cultures to OD600 = 0.1. When OD600 = 1.2 bacitracin (100 µg/ml) was added to the cultures to enrich cell wall precursors, and the cultures were incubated for an additional 30 min at 30 °C. This step was repeated once. (As a control, a second culture each was harvested before bacitracin was added at an OD600 = 1.2, and cell pellets were stored at − 20 °C) After incubation with bacitracin, the cells were harvested, and the cell pellets were stored at − 20 °C. The next day, the cell pellets were resuspended in 25 ml water and cooked for 60 min in boiling water to break the cells. Cell debris was removed by centrifugation (15 min, 500×g, 4 °C). […]
(§6) Five microliters of each sample were injected into an XCT6330 LC/MSD ultratrap system (Agilent Technologies) equipped with a Nucleosil 100 C18 column (3 μm × 100 mm × 2 mm internal diameter, Dr. Maisch GmbH). […] Extracted ion chromatograms (EICs) in negative ion mode for UDP-MurNAc-L-Ala-D-iGlu-L-Lys-D-Ala-D-Ala (m/z^−1 1148.34 ± 0.1) and UDP-MurNAc-L-Ala-D-iGlu-L-Lys-(D-Asp)-D-Ala-D-Ala (m/z^−1 1263.37 ± 0.1) were analyzed with Data Analysis (Bruker), exported and presented with GraphPad Prism 6.0.

[12] = tested on: L. lactis NZ9000SaNsrFP; test: Cytoplasmic PGN precursor accumulation (HPLC/MS), SaNsrFP-producing strain; type: cell-based, Lactococcus lactis; settings: bacitracin 100 µg/ml added at OD600 1.2, 30 min at 30 °C, repeated once; HPLC/MS EIC 1148.4 and 1263.4
Method: as §5, §6

[13] = tested on: L. lactis NZ9000SaNsrFH202AP; test: Cytoplasmic PGN precursor accumulation (HPLC/MS), ATP-hydrolysis deficient mutant strain; type: cell-based, Lactococcus lactis; settings: bacitracin 100 µg/ml added at OD600 1.2, 30 min at 30 °C, repeated once; compared with NZ9000Cm
Method: as §5, §6

## ramoplanin A2
[1]
  IC50: 73 ± 18 nM
[2]
  Fold of resistance L. lactis NZ9000NsrFH202AP: 1 ± 0 fold
  IC50: 92 ± 21 nM
[3]
  Fold of resistance L. lactis NZ9000NsrFP: 2 ± 1 fold
  IC50: 121 ± 34 nM
[4]
  Fold of resistance L. lactis NZ9000NisT: 1.3 ± 0 fold
  IC50: 95 nM

## gallidermin
[5]
  Fold of resistance conferred by SaNsrFP: 12 fold

## nisin
[5]
  Fold of resistance conferred by SaNsrFP: 16 fold
[6]
  Resistance against nisin, inactive protease variant SaNSRS236A: 2.6 fold

## CN[C@H](CC(C)C)C(=O)N[C@H]1C(=O)N[C@@H](CC(N)=O)C(=O)N[C@H]2C(=O)N[C@H]3C(=O)N[C@H](C(=O)N[C@H](C(=O)O)c4cc(O)cc(O)c4-c4cc3ccc4O)[C@H](O)c3ccc(c(Cl)c3)Oc3cc2cc(c3O[C@@H]2O[C@H](CO)[C@@H](O)[C@H](O)[C@H]2O[C@H]2C[C@](C)(N)[C@H](O)[C@H](C)O2)Oc2ccc(cc2Cl)[C@H]1O [Vancomycin, vancomycin]
[1]
  IC50: 214 nM
[2]
  Fold of resistance L. lactis NZ9000NsrFH202AP: 2 ± 1 fold
  IC50: 325 ± 117 nM
[3]
  Fold of resistance L. lactis NZ9000NsrFP: 5 ± 1 fold
  IC50: 1080 ± 264 nM
[4]
  Fold of resistance L. lactis NZ9000NisT: 1 ± 0 fold
  IC50: 133 ± 9 nM

## lysobactin
[1]
  IC50: 30.7 nM
[2]
  Fold of resistance L. lactis NZ9000NsrFH202AP: 3 ± 2 fold
  IC50: 102 ± 52.2 nM
[3]
  Fold of resistance L. lactis NZ9000NsrFP: 6 ± 1 fold
  IC50: 182 ± 37 nM
[4]
  Fold of resistance L. lactis NZ9000NisT: 1 ± 0 fold
  IC50: 25 ± 3 nM

## CC[C@H](C)[C@H](N)C1=N[C@H](C(=O)N[C@@H](CC(C)C)C(=O)N[C@H](CCC(=O)O)C(=O)N[C@H](C(=O)N[C@H]2CCCCNC(=O)[C@H](CC(N)=O)NC(=O)[C@@H](CC(=O)O)NC(=O)[C@H](Cc3cnc[nH]3)NC(=O)[C@@H](Cc3ccccc3)NC(=O)[C@H]([C@@H](C)CC)NC(=O)[C@@H](CCCN)NC2=O)[C@@H](C)CC)CS1 [Bacitracin, bacitracin] ({Ileψ(thiazoline)Cys}-L[dE]IK[dOrn]I[dF]H[dD]N; lactam 4-C (inferred); N-terminus assumed)
[1]
  IC50: 938 ± 94 nM
[2]
  Fold of resistance L. lactis NZ9000NsrFH202AP: 13 fold
  IC50: 12900 nM
[3]
  Fold of resistance L. lactis NZ9000NsrFP: 349 ± 65 fold
  IC50: 328000 nM
[3]; listed as bacitracin
  Fold of resistance L. lactis NZ9000NsrFP: 350 fold
[7]
  Growth behaviour of L. lactis NZ9000Cm: Severe growth inhibition
[8]
  Growth behaviour of L. lactis NZ9000SaNsrFP: did not show reduced growth
[9]
  Growth behaviour of L. lactis NZ9000SaNsrFH202AP: reduced growth
[10]
  Growth behaviour of L. lactis NZ9000NisT: Severe growth inhibition
[11]
  PGN precursor accumulation in the cytoplasm, L. lactis NZ9000Cm: presence of the characteristic PGN precursors
[12]
  PGN precursor accumulation in the cytoplasm, L. lactis NZ9000SaNsrFP: no accumulation of the PGN precursors
[13]
  PGN precursor accumulation in the cytoplasm, L. lactis NZ9000SaNsrFH202AP: reduced PGN precursor accumulation
[4]
  Fold of resistance L. lactis NZ9000NisT: 1 ± 0 fold
  IC50: 733 nM
